Experiment [1] deals with T1, Hydroxycarboxylic acid receptor 1 (Homo sapiens, UniProt Q9BXC0). Description: Agonist activity at CRE-luc-fused HCA1 (unknown origin) expressed in HEK293 cells co-expressing XtremeGENE HP DNA assessed as inhibition of cAMP production preincubated for 30 mins followed by forskolin addition measured after 6 hrs by Bright-Glo Luciferase Assay. The format is functional, cell-based. Conditions: filed as agonist, time 6.5 hrs. On the technique in general: Changes in cAMP serve as a functional read-out for many G protein-coupled receptors.
T1 sequence (Q9BXC0 whole entry, the tested form may be a part): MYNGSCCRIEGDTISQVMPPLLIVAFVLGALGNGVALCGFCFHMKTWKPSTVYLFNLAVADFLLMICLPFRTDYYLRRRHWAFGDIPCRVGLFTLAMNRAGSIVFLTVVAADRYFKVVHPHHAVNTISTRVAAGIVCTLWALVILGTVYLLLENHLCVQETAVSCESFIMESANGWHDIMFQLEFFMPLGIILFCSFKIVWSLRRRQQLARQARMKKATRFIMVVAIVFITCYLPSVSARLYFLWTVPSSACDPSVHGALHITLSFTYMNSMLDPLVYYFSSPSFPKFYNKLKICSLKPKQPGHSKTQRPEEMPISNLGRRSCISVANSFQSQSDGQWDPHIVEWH

Experiment [2] has as its system Hydroxycarboxylic acid receptor 1 (Homo sapiens), Q9BXC0 [C6A]. Description: Agonist activity at CRE-luc-fused HCA1 C6A mutant (unknown origin) expressed in HEK293 cells co-expressing XtremeGENE HP DNA assessed as inhibition of cAMP production preincubated for 30 mins followed by forskolin addition measured after 6 hrs by Bright-Glo Luciferase Assay. The format is cell-based. Particulars: time 6.5 hrs.

Experiment [3] relates to Hydroxycarboxylic acid receptor 1 (Homo sapiens), Q9BXC0 [C7A]. Description: Agonist activity at CRE-luc-fused HCA1 C7A mutant (unknown origin) expressed in HEK293 cells co-expressing XtremeGENE HP DNA assessed as inhibition of cAMP production preincubated for 30 mins followed by forskolin addition measured after 6 hrs by Bright-Glo Luciferase Assay. The format is cell-based. Conditions: time 6.5 hrs.
Chain of Hydroxycarboxylic acid receptor 1 (Homo sapiens), Q9BXC0 [C7A] (Q9BXC0 whole entry C7A, the tested form may be a part): as the sequence (Q9BXC0 whole entry, the tested form may be a part) above, with C7A counted along it

For experiment [4], the system named is Hydroxycarboxylic acid receptor 1 (Homo sapiens), Q9BXC0 [C88A]. Nature of the experiment: Agonist activity at CRE-luc-fused HCA1 C88A mutant (unknown origin) expressed in HEK293 cells co-expressing XtremeGENE HP DNA assessed as inhibition of cAMP production preincubated for 30 mins followed by forskolin addition measured after 6 hrs by Bright-Glo Luciferase Assay. It is filed as cell-based. Particulars: time 6.5 hrs.
Chain of Hydroxycarboxylic acid receptor 1 (Homo sapiens), Q9BXC0 [C88A] (Q9BXC0 whole entry C88A, the tested form may be a part): as the sequence (Q9BXC0 whole entry, the tested form may be a part) above, with C88A counted along it

Experiment [5] concerns Hydroxycarboxylic acid receptor 1 (Homo sapiens), Q9BXC0 [Y74A]. Nature of the experiment: Agonist activity at CRE-luc-fused HCA1 Y74A mutant (unknown origin) expressed in HEK293 cells co-expressing XtremeGENE HP DNA assessed as inhibition of cAMP production preincubated for 30 mins followed by forskolin addition measured after 6 hrs by Bright-Glo Luciferase Assay. It is filed as cell-based. Particulars: time 6.5 hrs.
Chain of Hydroxycarboxylic acid receptor 1 (Homo sapiens), Q9BXC0 [Y74A] (Q9BXC0 whole entry Y74A, the tested form may be a part): as the sequence (Q9BXC0 whole entry, the tested form may be a part) above, with Y74A counted along it

In experiment [6] the test system is Hydroxycarboxylic acid receptor 1 (Homo sapiens), Q9BXC0 [E166A]. Description: Agonist activity at CRE-luc-fused HCA1 E166A mutant (unknown origin) expressed in HEK293 cells co-expressing XtremeGENE HP DNA assessed as inhibition of cAMP production preincubated for 30 mins followed by forskolin addition measured after 6 hrs by Bright-Glo Luciferase Assay. It is filed as cell-based. Conditions: time 6.5 hrs.
Chain of Hydroxycarboxylic acid receptor 1 (Homo sapiens), Q9BXC0 [E166A] (Q9BXC0 whole entry E166A, the tested form may be a part): as the sequence (Q9BXC0 whole entry, the tested form may be a part) above, with E166A counted along it

Experiment [7] deals with Hydroxycarboxylic acid receptor 1 (Homo sapiens), Q9BXC0 [E166I]. Nature of the experiment: Agonist activity at CRE-luc-fused HCA1 E166I mutant (unknown origin) expressed in HEK293 cells co-expressing XtremeGENE HP DNA assessed as inhibition of cAMP production preincubated for 30 mins followed by forskolin addition measured after 6 hrs by Bright-Glo Luciferase Assay. The format is cell-based. Particulars: time 6.5 hrs.
Chain of Hydroxycarboxylic acid receptor 1 (Homo sapiens), Q9BXC0 [E166I] (Q9BXC0 whole entry E166I, the tested form may be a part): as the sequence (Q9BXC0 whole entry, the tested form may be a part) above, with E166I counted along it

The subject of experiment [8] is Hydroxycarboxylic acid receptor 1 (Homo sapiens), Q9BXC0 [R240A]. Description: Agonist activity at CRE-luc-fused HCA1 R240A mutant (unknown origin) expressed in HEK293 cells co-expressing XtremeGENE HP DNA assessed as inhibition of cAMP production preincubated for 30 mins followed by forskolin addition measured after 6 hrs by Bright-Glo Luciferase Assay. The format is cell-based. Conditions: time 6.5 hrs.

Experiment [9] addresses T1, Hydroxycarboxylic acid receptor 1. Nature of the experiment: Agonist activity at HCA1 (unknown origin). The format is functional, cell-based, HEK293.
The test system of experiment [10] is Hydroxycarboxylic acid receptor 1 (Homo sapiens), Q9BXC0 [R71A]. Description: Agonist activity at CRE-luc-fused HCA1 R71A mutant (unknown origin) expressed in HEK293 cells co-expressing XtremeGENE HP DNA assessed as inhibition of cAMP production preincubated for 30 mins followed by forskolin addition measured after 6 hrs by Bright-Glo Luciferase Assay. The format is cell-based. Particulars: time 6.5 hrs.
Chain of Hydroxycarboxylic acid receptor 1 (Homo sapiens), Q9BXC0 [R71A] (Q9BXC0 whole entry R71A, the tested form may be a part): as the sequence (Q9BXC0 whole entry, the tested form may be a part) above, with R71A counted along it

Experiment [11] has as its system Hydroxycarboxylic acid receptor 1 (Homo sapiens), Q9BXC0 [Y75A]. Nature of the experiment: Agonist activity at CRE-luc-fused HCA1 Y75A mutant (unknown origin) expressed in HEK293 cells co-expressing XtremeGENE HP DNA assessed as inhibition of cAMP production preincubated for 30 mins followed by forskolin addition measured after 6 hrs by Bright-Glo Luciferase Assay. Conditions: time 6.5 hrs. It is filed as cell-based.

Experiment [12] concerns Hydroxycarboxylic acid receptor 1 (Homo sapiens), Q9BXC0 [R99A]. Nature of the experiment: Agonist activity at CRE-luc-fused HCA1 R99A mutant (unknown origin) expressed in HEK293 cells co-expressing XtremeGENE HP DNA assessed as inhibition of cAMP production preincubated for 30 mins followed by forskolin addition measured after 6 hrs by Bright-Glo Luciferase Assay. It is filed as cell-based. Particulars: time 6.5 hrs.
Chain of Hydroxycarboxylic acid receptor 1 (Homo sapiens), Q9BXC0 [R99A] (Q9BXC0 whole entry R79A, the tested form may be a part): as the sequence (Q9BXC0 whole entry, the tested form may be a part) above, with R79A counted along it

Experiment [13] concerns Hydroxycarboxylic acid receptor 1 (Homo sapiens), Q9BXC0 [H261A]. Description: Agonist activity at CRE-luc-fused HCA1 H261A mutant (unknown origin) expressed in HEK293 cells co-expressing XtremeGENE HP DNA assessed as inhibition of cAMP production preincubated for 30 mins followed by forskolin addition measured after 6 hrs by Bright-Glo Luciferase Assay. It is filed as cell-based. Particulars: time 6.5 hrs.
Chain of Hydroxycarboxylic acid receptor 1 (Homo sapiens), Q9BXC0 [H261A] (Q9BXC0 whole entry H261A, the tested form may be a part): as the sequence (Q9BXC0 whole entry, the tested form may be a part) above, with H261A counted along it

In experiment [14] the test system is Hydroxycarboxylic acid receptor 1 (Homo sapiens), Q9BXC0 [H261F]. Nature of the experiment: Agonist activity at CRE-luc-fused HCA1 H261F mutant (unknown origin) expressed in HEK293 cells co-expressing XtremeGENE HP DNA assessed as inhibition of cAMP production preincubated for 30 mins followed by forskolin addition measured after 6 hrs by Bright-Glo Luciferase Assay. The format is cell-based. Particulars: time 6.5 hrs.
Chain of Hydroxycarboxylic acid receptor 1 (Homo sapiens), Q9BXC0 [H261F] (Q9BXC0 whole entry H261F, the tested form may be a part): as the sequence (Q9BXC0 whole entry, the tested form may be a part) above, with H261F counted along it

Experiment [15] deals with Hydroxycarboxylic acid receptor 1 (Homo sapiens), Q9BXC0 [Y268A]. Description: Agonist activity at CRE-luc-fused HCA1 Y268A mutant (unknown origin) expressed in HEK293 cells co-expressing XtremeGENE HP DNA assessed as inhibition of cAMP production preincubated for 30 mins followed by forskolin addition measured after 6 hrs by Bright-Glo Luciferase Assay. The format is cell-based. Conditions: time 6.5 hrs.
Chain of Hydroxycarboxylic acid receptor 1 (Homo sapiens), Q9BXC0 [Y268A] (Q9BXC0 whole entry Y268A, the tested form may be a part): as the sequence (Q9BXC0 whole entry, the tested form may be a part) above, with Y268A counted along it

Experiment [16] deals with HEK293. Description: Agonist activity at HCA2 (1 to 129 residues)/HCA3 (130-)(unknown origin) expressed in HEK293 cells incubated for 90 mins by IP1 accumulation assay. The format is cell-based. Particulars: Homo sapiens.
The test system of experiment [17] is HEK293. Description: Agonist activity at HCA3 (1 to 129 residues)/HCA2 (130-) S178I mutant (unknown origin) expressed in HEK293 cells incubated for 90 mins by IP1 accumulation assay. It is filed as cell-based. Conditions: Homo sapiens, filed as agonist.
Experiment [18] relates to HEK293. Description: Agonist activity at HCA2 (1 to 129 residues)/HCA3 (130-) N86Y/W91S mutant (unknown origin) expressed in HEK293 cells incubated for 90 mins by IP1 accumulation assay. Particulars: Homo sapiens. It is filed as cell-based.
In experiment [19] the test system is HEK293. Description: Agonist activity at HCA3 (1 to 129 residues)/HCA2 (130-)(unknown origin) expressed in HEK293 cells incubated for 90 mins by IP1 accumulation assay. The format is cell-based. Particulars: Homo sapiens.
Experiment [20] concerns HEK293. Description: Agonist activity at HCA3 (1 to 129 residues)/HCA2 (130-) Y86N/S91W mutant (unknown origin) expressed in HEK293 cells incubated for 90 mins by IP1 accumulation assay. The format is cell-based. Particulars: Homo sapiens, filed as agonist.

Here are results for seven compounds from ChEMBL document CHEMBL6153128, “Insights into the Activation Mechanism of HCA1, HCA2, and HCA3” (J Med Chem, 2025).

The source made the active and inactive calls. No cut-off for these calls is given here.

Chain of Hydroxycarboxylic acid receptor 1 (Homo sapiens), Q9BXC0 [C6A] (Q9BXC0 whole entry C6A, the tested form may be a part): as the sequence (Q9BXC0 whole entry, the tested form may be a part) above, with C6A counted along it
Chain of Hydroxycarboxylic acid receptor 1 (Homo sapiens), Q9BXC0 [Y75A] (Q9BXC0 whole entry Y75A, the tested form may be a part): as the sequence (Q9BXC0 whole entry, the tested form may be a part) above, with Y75A counted along it
Chain of Hydroxycarboxylic acid receptor 1 (Homo sapiens), Q9BXC0 [R240A] (Q9BXC0 whole entry R240A, the tested form may be a part): as the sequence (Q9BXC0 whole entry, the tested form may be a part) above, with R240A counted along it

For `O=C(O)c1cc(O)cc(O)c1` [3,5-DIHYDROXYBENZOIC ACID], the outcome in experiment [1] was Active. Besides, the result in experiment [2], in [3], in experiment [4], in experiment [5], in experiment [6] and in experiment [7] was inactive. Also, the outcome in [8], in experiment [10], in experiment [11], in [12], in experiment [13] and in [14] was inactive. Besides, in [15], the result was inactive. Moreover, the EC50 (as a rule, the concentration needed to bring the measured effect to its halfway point) in experiment [9] is about 150 µM.

Compound `CC1CCC(C(=O)Nc2nc(-c3cccs3)c(CC(=O)N3CCN(C)CC3)s2)CC1` (stereo not given) showed an EC50 in experiment [9] of about 0.05 µM.

On to `CCCCCC(O)CC(=O)O` (stereo not given), for which the outcome in experiment [16] and in experiment [18] was inactive. For the same compound, the result in [17] was Active.

Consider `CC(C)(Cc1nc(-c2ccc(O)cn2)no1)C(=O)NC1=C(C(=O)O)CCCC1`, for which the outcome in experiment [16] and in experiment [19] was inactive. Further, in experiment [20], the outcome was Active.

Take `O=C(O)c1cc(O)cc(Cl)c1`: the 50% effective concentration (EC50) in [9] was about 16 µM.

In experiment [9], `CC(O)C(=O)O` (stereo not given) [LACTIC ACID] yielded an EC50 of 1000 µM. This lies in the millimolar range.

On to `O=C(O)c1cccc(O)c1` [3-HYDROXYBENZOIC ACID], for which the EC50 in experiment [9] is about 184 µM.
